# Laboratory results reported in patent US7166611B2, “Pharmaceutical compositions having appetite suppressant activity” (priority 1997, dated 2007).
# Key:
# Type in all cases: in vivo, rat
# [1] = system: male Wistar rats; test: Example 44 single oral dose study: water consumption
# Description: (§1) Sample 1 to 3 were each administered as a single oral dose to male Wistar rats. Two additional control groups received vehicle (distilled water or DMSO). Orally administered fenfluramine (7.5 mg/kg) was included as a reference standard.
# (§2) Fifty-five male Wistar rats were used for the study.
# (§3) Bodyweights, food consumption (food hopper weight) and water consumption (bottle weight) were recorded daily at the same time each day from the day of arrival until the termination of the study.
# (§4) On Day 1, the rats received a single oral (gavage) dose according to the following table:
# (§5) Groups 1–8 were dosed using a constant dose volume of 10 ml/kg and groups 9–12 were dosed using a dose volume of 1 ml/kg.
# (§6) Food and water consumption were also measured at […] after dosing on Day 1.
# (§7) The post-dose food and water consumption measurements and bodyweights at each time-point for the P57-treated animals were compared with those for the relevant, similarly-treated vehicle control group using analysis of variance followed by Williams' test for comparisons with controls.
# (§8) The data for the fenfluramine-treated animals was compared with that for the vehicle-treated control group using Student's t test.
# [2] = system: male Wistar rats; test: Example 44 single oral dose study: liver histopathology
# Text: Following the measurements of Day 8, the animals were killed by carbon dioxide asphyxiation, and the livers excised and placed in 10% buffered formalin, prior to histology.
# Paraffin wax sections of each liver were taken at 4–5 μm and stained with haematoxylin and eosin. Additional sections were cut on a cryostat at 12 μm and stained for fat with Oil Red O (ORO).
# Histological examination was restricted to the liver.
# [3] = system: male Wistar rats; test: Example 44 single oral dose study: food consumption
# Description: as §1, §2, §3, §4, §5, §6, §7, §8
# [4] = Example 44 single oral dose study: bodyweight
# Description: as §1, §2, §3, §4, §5, §7, §8
# [5] = pre-dose data, before treatment, table rows = later dose groups
# [6] = Group 11, 7.5 mg/kg, 3 examined
# [7] = 7.5 mg/kg single oral dose on Day 1
smiles,measurement,setting,value
"CCNC(C)Cc1cccc(C(F)(F)F)c1 (centres unmarked) [Fenfluramine, reference compound]",Group mean water consumption (g ± sd) between Days: 1–2,[1]; 7.5 mg/kg single oral dose,34.1 ± 3.60 g
same,Group mean water consumption (g ± sd) between Days: 2–3,[1]; 7.5 mg/kg single oral dose,37.2 ± 1.48 g
same,Group mean water consumption (g ± sd) between Days: 3–4,[1]; 7.5 mg/kg single oral dose,36.7 ± 3.92 g
same,Group mean water consumption (g ± sd) between Days: 4–5,[1]; 7.5 mg/kg single oral dose,33.8 ± 2.89 g
same,Group mean water consumption (g ± sd) between Days: 5–6,[1]; 7.5 mg/kg single oral dose,33.7 ± 5.43 g
same,Group mean water consumption (g ± sd) between Days: 6–7,[1]; 7.5 mg/kg single oral dose,32.1 ± 1.93 g
same,Group mean water consumption (g ± sd) between Days: 7–8,[1]; 7.5 mg/kg single oral dose,33.6 ± 2.50 g
same,effects on water consumption,[1]; 7.5 mg/kg single oral dose,No statistically significant effects
same,Group mean water consumption (g ± sd) between Days: −2–−1,[1]; [5],31.6 ± 2.80 g
same,Group mean water consumption (g ± sd) between Days: −3–−2,[1]; [5],30.9 ± 2.12 g
same,Group mean water consumption (g ± sd) between Days: −4–−3,[1]; [5],34.7 ± 3.73 g
same,Group mean water consumption (g ± sd) between Days: −5–−4,[1]; [5],35.5 ± 7.49 g
same,Group mean water consumption (g ± sd) between Days: −6–−5,[1]; [5],47.0 ± 5.3 g
same,Liver (ORO stain): Hepatocyte fat - centrilobular(Total),[2]; [6],1
same,"Liver (ORO stain): Hepatocyte fat - centrilobular, Minimal",[2]; [6],1
same,Liver (ORO stain): No abnormalities detected,[2]; [6],2
same,Liver: Hepatocyte necrosis - focal (Total),[2]; [6],0
same,"Liver: Hepatocyte necrosis - focal, Minimal",[2]; [6],0
same,Liver: No abnormalities detected (incidence),[2]; [6],0
same,Liver: Parenchymal inflammatory cell foci (Total),[2]; [6],0
same,"Liver: Parenchymal inflammatory cell foci, Minimal",[2]; [6],0
same,Liver: Portal leucocytes (Total),[2]; [6],0
same,"Liver: Portal leucocytes, Minimal",[2]; [6],0
same,Liver: Portal lymphoid infiltration (Total),[2]; [6],3
same,"Liver: Portal lymphoid infiltration, Minimal",[2]; [6],3
same,histological examination of the liver,"[2]; all doses tested, single oral dose, livers taken Day 8",No treatment-related changes were detected
same,Group mean food consumption (g ± sd) between Days: 1–2,[3]; 7.5 mg/kg single oral dose,22.4 ± 3.19 g
same,Group mean food consumption (g ± sd) between Days: 2–3,[3]; 7.5 mg/kg single oral dose,31.9 ± 0.84 g
same,Group mean food consumption (g ± sd) between Days: 3–4,[3]; 7.5 mg/kg single oral dose,32.7 ± 2.50 g
same,Group mean food consumption (g ± sd) between Days: 4–5,[3]; 7.5 mg/kg single oral dose,33.0 ± 2.55 g
same,Group mean food consumption (g ± sd) between Days: 5–6,[3]; 7.5 mg/kg single oral dose,30.4 ± 0.23 g
same,Group mean food consumption (g ± sd) between Days: 6–7,[3]; 7.5 mg/kg single oral dose,32.7 ± 1.90 g
same,Group mean food consumption (g ± sd) between Days: 7–8,[3]; 7.5 mg/kg single oral dose,32.4 ± 1.60 g
same,food consumption at 6 and 24 hours post-dose versus vehicle-treated control group,[3]; 7.5 mg/kg single oral dose,statistically significant reductions in food consumption
same,Group mean food consumption (g ± sd) between Days: −2–−1,[3]; [5],29.7 ± 2.84 g
same,Group mean food consumption (g ± sd) between Days: −3–−2,[3]; [5],30.8 ± 0.54 g
same,Group mean food consumption (g ± sd) between Days: −4–−3,[3]; [5],27.0 ± 1.53 g
same,Group mean food consumption (g ± sd) between Days: −5–−4,[3]; [5],25.3 ± 4.03 g
same,Group mean food consumption (g ± sd) between Days: −6–−5,[3]; [5],29.1 ± 0.66 g
same,effects on bodyweight,[4]; 7.5 mg/kg single oral dose,No statistically significant effects
same,Group mean bodyweight (g ± sd) on Day: 2,[4]; [7],190.3 ± 10.97 g
same,Group mean bodyweight (g ± sd) on Day: 3,[4]; [7],197.7 ± 7.37 g
same,Group mean bodyweight (g ± sd) on Day: 4,[4]; [7],207.7 ± 7.23 g
same,Group mean bodyweight (g ± sd) on Day: 5,[4]; [7],217.7 ± 10.69 g
same,Group mean bodyweight (g ± sd) on Day: 6,[4]; [7],224.3 ± 10.12 g
same,Group mean bodyweight (g ± sd) on Day: 7,[4]; [7],234.3 ± 12.70 g
same,Group mean bodyweight (g ± sd) on Day: 8,[4]; [7],243.3 ± 9.24 g
same,Group mean bodyweight (g ± sd) on Day: Pre-dose (1),[4]; Day 1 before dosing,190.3 ± 9.71 g
same,Group mean bodyweight (g ± sd) on Day: −1,[4]; [5],182.8 ± 10.21 g
same,Group mean bodyweight (g ± sd) on Day: −2,[4]; [5],170.0 ± 9.15 g
same,Group mean bodyweight (g ± sd) on Day: −3,[4]; [5],160.0 ± 9.82 g
same,Group mean bodyweight (g ± sd) on Day: −4,[4]; [5],152.7 ± 9.09 g
same,Group mean bodyweight (g ± sd) on Day: −5,[4]; [5],133.2 ± 9.21 g
